In article PMC12029227, “In Vitro Evaluation of Novel Furo[3,2-c]coumarins as Cholinesterases and Monoamine Oxidases Inhibitors” (Molecules, 2025):
“Also recorded” adds a separate entry of the source. Where two headings read alike, the source gives them in different places.

Columns and labels:
[1] = Precipitation in the cell assay conditions; assay type: physicochemical; conditions: 20 μM, SH-SY5Y cell assay conditions
Protocol: The cell viability of human neuroblastoma SH-SY5Y cells was measured as previously reported in ref. [29]. […] Briefly, cells were plated at a concentration of 4.5 × 10^4 cells/well and cultured in Dulbecco’s modified Eagle’s medium (DMEM) high glucose supplemented with 10% (v/v) heat-inactivated fetal bovine serum (FBS), 2 mM L-glutamine, 100 U/mL penicillin, and 100 μg/mL streptomycin at 37 °C in an atmosphere of 5% CO2 in 96 wells/plate. […] Then, cells were incubated for 2 h at 37 °C and 5% CO2 with 0.5 mg/mL of MTT, and the formazan crystals in the cells were solubilized with absolute ethanol. […] Cell viability was expressed as a percentage of the negative control (CTRL), represented by untreated cells, which was set at 100%. Data are the mean ± SD from three independent experiments, each performed in triplicate and analyzed using GraphPad Prism 5.0 (GraphPad Software Inc., San Diego, CA, USA). Statistical significance was calculated using a one-way analysis of variance (ANOVA) followed by Dunnett’s multiple comparison test. Levels of significance refer to untreated cells: * p < 0.05.

hMAO B = biological target: T1, hMAO B (Homo sapiens, UniProt P27338); assay: Inhibition of human recombinant MAO B, spectrofluorimetric kynuramine assay; assay type: biochemical; conditions: for inhibition at 10 µM: read-out: % Inhibition at 10 μM hMAO B
T1 construct: purchased Sigma-Aldrich (Milan, Italy)
T1 sequence (P27338 1-520): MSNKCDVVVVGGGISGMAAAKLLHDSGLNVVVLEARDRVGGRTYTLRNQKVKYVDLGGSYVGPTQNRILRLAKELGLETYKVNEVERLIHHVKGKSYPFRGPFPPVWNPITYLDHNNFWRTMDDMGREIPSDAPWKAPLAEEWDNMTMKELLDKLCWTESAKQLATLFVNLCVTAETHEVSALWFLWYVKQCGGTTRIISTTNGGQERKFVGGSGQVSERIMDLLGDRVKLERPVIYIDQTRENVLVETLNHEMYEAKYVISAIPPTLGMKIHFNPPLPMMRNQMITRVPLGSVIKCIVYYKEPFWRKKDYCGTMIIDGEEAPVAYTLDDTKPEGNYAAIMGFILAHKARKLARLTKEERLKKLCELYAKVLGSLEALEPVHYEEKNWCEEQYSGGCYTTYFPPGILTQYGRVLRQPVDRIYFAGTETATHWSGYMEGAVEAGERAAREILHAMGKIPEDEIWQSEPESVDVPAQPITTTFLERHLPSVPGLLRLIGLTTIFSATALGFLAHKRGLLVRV
Protocol: (§1) All human enzymes, substrates and reagents were from Sigma-Aldrich (Milan, Italy). Experiments were run in 96-well plates from Greiner Bio-One (Kremsmenster, Austria) with an Infinite M1000 Pro multiplate reader (Tecan, Cernusco sul Naviglio, Italy). […] For studies addressing MAOs inhibition the spectrofluorimetric protocol was based on the oxidative deamination of kynuramine to 4-hydroxyquinoline measured in black, flat-bottom polystyrene plates [29]. Incubations were performed in triplicate and results were expressed as the mean ± SEM from 3 independent experiments. The values of IC50 were calculated by nonlinear regressions using GraphPad Prism 5.00 (GraphPad Software, San Diego, CA, USA).

hAChE = biological target: T2, hAChE (Homo sapiens, UniProt P22303); assay: biochemical; conditions: for IC50: human AChE, mean of three independent experiments ± SEM
T2 construct: purchased Sigma-Aldrich (Milan, Italy)
T2 sequence (P22303 32-614): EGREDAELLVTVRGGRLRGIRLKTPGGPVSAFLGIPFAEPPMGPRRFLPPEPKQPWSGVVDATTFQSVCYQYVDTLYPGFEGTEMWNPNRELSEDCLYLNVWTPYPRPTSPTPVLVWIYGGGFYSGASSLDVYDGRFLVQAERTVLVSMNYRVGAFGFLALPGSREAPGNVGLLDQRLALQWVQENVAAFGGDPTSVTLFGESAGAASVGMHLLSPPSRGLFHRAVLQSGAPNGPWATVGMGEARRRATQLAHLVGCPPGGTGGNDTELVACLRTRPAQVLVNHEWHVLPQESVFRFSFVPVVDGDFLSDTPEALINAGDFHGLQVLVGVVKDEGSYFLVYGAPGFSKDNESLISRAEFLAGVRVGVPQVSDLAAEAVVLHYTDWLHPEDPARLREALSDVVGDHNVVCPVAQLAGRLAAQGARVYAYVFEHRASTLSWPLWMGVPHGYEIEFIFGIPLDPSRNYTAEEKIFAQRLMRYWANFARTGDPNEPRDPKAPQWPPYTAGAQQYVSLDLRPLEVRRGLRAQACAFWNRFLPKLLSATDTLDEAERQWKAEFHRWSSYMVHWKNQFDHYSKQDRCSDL
Protocol: All human enzymes, substrates and reagents were from Sigma-Aldrich (Milan, Italy). Experiments were run in 96-well plates from Greiner Bio-One (Kremsmenster, Austria) with an Infinite M1000 Pro multiplate reader (Tecan, Cernusco sul Naviglio, Italy). The inhibition of ChEs was determined by following Ellman’s spectrophotometric assay in transparent, flat-bottom plates [18]. […] Incubations were performed in triplicate and results were expressed as the mean ± SEM from 3 independent experiments. The values of IC50 were calculated by nonlinear regressions using GraphPad Prism 5.00 (GraphPad Software, San Diego, CA, USA). […] Apparent inhibition constants and kinetic parameters were calculated within the “Enzyme kinetics” module of Prism.

hBChE = biological target: T3, hBChE (Homo sapiens, UniProt P06276); assay: biochemical; assay type: biochemical; conditions: for inhibition at 10 µM: human BChE, mean ± SEM; for inhibitory activity toward hBChE (in words): summary of Table 1
T3 construct: purchased Sigma-Aldrich (Milan, Italy)
T3 sequence (P06276 29-602): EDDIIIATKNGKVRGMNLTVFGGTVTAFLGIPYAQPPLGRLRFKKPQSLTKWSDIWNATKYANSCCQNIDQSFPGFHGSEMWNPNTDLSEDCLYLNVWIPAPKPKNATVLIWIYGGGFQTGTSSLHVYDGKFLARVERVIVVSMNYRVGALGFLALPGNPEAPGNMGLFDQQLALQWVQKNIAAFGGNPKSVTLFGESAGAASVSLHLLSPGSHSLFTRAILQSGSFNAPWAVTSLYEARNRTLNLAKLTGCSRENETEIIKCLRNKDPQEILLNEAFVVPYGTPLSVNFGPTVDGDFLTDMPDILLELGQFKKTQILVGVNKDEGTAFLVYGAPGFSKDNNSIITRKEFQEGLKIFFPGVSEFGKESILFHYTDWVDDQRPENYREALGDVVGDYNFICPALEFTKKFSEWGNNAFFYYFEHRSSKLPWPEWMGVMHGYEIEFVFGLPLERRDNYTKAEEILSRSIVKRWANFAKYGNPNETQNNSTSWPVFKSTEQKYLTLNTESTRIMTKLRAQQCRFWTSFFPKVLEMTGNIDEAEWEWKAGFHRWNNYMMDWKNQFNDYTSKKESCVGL
Protocol: All human enzymes, substrates and reagents were from Sigma-Aldrich (Milan, Italy). Experiments were run in 96-well plates from Greiner Bio-One (Kremsmenster, Austria) with an Infinite M1000 Pro multiplate reader (Tecan, Cernusco sul Naviglio, Italy). The inhibition of ChEs was determined by following Ellman’s spectrophotometric assay in transparent, flat-bottom plates [18]. […] Incubations were performed in triplicate and results were expressed as the mean ± SEM from 3 independent experiments. The values of IC50 were calculated by nonlinear regressions using GraphPad Prism 5.00 (GraphPad Software, San Diego, CA, USA).

hMAO A = biological target: T4, hMAO A (Homo sapiens, UniProt P21397); assay: Inhibition of human recombinant MAO A, spectrofluorimetric kynuramine assay; assay type: biochemical; conditions: for inhibition at 10 µM: read-out: % Inhibition at 10 μM hMAO A; for inhibition of MAO A activity (in words): summary of Table 1
T4 construct: purchased Sigma-Aldrich (Milan, Italy)
T4 sequence (P21397 1-527): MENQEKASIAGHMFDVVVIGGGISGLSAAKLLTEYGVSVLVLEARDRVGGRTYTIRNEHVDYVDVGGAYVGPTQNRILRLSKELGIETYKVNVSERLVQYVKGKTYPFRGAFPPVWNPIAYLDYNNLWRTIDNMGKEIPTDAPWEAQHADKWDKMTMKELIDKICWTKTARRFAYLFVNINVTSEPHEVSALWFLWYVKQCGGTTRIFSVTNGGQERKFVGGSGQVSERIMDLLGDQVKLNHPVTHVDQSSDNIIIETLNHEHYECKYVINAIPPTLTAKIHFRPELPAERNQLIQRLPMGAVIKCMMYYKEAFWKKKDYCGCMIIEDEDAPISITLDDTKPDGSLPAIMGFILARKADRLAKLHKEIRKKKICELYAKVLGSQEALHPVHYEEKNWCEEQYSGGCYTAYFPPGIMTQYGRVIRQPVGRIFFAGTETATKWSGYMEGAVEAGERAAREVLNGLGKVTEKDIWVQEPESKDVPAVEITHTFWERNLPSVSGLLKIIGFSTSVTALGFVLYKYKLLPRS
Protocol: as §1

[2] = human recombinant MAO B on Supersomes, 10 μM, mean ± SEM
[3] = human recombinant MAO A on Supersomes, 10 μM, mean ± SEM

Row | Structure (SMILES) | precipitation in the assay conditions at higher concentrations [1] | inhibition at 10 µM (hMAO B) | IC50 (hAChE) | inhibition at 10 µM (hBChE) | inhibitory activity toward hBChE (in words) (hBChE) | inhibition at 10 µM (hMAO A) | inhibition at 10 µM (hMAO B; [2]) | inhibition at 10 µM (hMAO A; [3]) | inhibition of MAO A activity (in words) (hMAO A; 10 μM) | IC50 (hMAO B) | inhibition mechanism for AChE (hAChE; Lineweaver-Burk plots, inhibitor 0–15 μM) | Ki (hAChE; Lineweaver-Burk plots, inhibitor 0–15 μM, substrate S-acetylthiocholine 0.033 to 0.2 mM, read-out: Ki AChE)
1 | Cc1ccc([C@@H]2c3c(c4ccccc4oc3=O)O[C@H]2c2ccccc2S(C)(=O)=O)cc1 [Compound 2a] | precipitation | 40 ± 8% | 5.5 ± 0.7 µM | 27 ± 12% | very low percentage of inhibition | 47 ± 3% | – | – | – | – | – | –
2 | COc1ccc([C@@H]2c3c(c4ccccc4oc3=O)O[C@H]2c2ccccc2S(C)(=O)=O)cc1 [Compound 2b] | precipitation | 39 ± 6% | 6.1 ± 0.3 µM | 29 ± 11% | very low percentage of inhibition | 45 ± 1% | – | – | – | – | – | –
3 | CS(=O)(=O)c1ccccc1[C@@H]1Oc2c(c(=O)oc3ccccc23)[C@H]1c1ccc(Cl)cc1 [Compound 2c] | – | 11 ± 6% | 4 ± 0.7 µM | < 5% | absence of inhibitory activities | 16 ± 14% | – | – | – | – | – | –
4 | CS(=O)(=O)c1ccccc1[C@@H]1Oc2c(c(=O)oc3ccccc23)[C@H]1c1cccs1 [Compound 2d] | precipitation | 17 ± 10% | 4 ± 0.5 µM | < 5% | absence of inhibitory activities | 42 ± 4% | – | – | – | – | – | –
5 | Cc1ccc(-c2c(-c3ccccc3S(C)(=O)=O)oc3c2c(=O)oc2ccccc23)cc1 [Compound 3a] | – | – | 4.4 ± 0.5 µM | < 5% | absence of inhibitory activities | – | 32% | < 5% | inactive | – | – | –
6 | COc1ccc(-c2c(-c3ccccc3S(C)(=O)=O)oc3c2c(=O)oc2ccccc23)cc1 [Compound 3b] | – | – | 5.7 ± 1 µM | 19 ± 9% | very low percentage of inhibition | – | 43 ± 1% | < 5% | inactive | – | – | –
7 | CS(=O)(=O)c1ccccc1-c1oc2c(c1-c1cccs1)c(=O)oc1ccccc12 [Compound 3d] | – | – | 4.1 ± 0.7 µM | 21 ± 3% | very low percentage of inhibition | – | – | < 5% | no inhibition | 0.561 ± 0.085 µM | mixed-type or a non-competitive inhibition mechanism; also recorded: mixed-type kinetics; also recorded: mixed-type or non-competitive binding mode | 9.7 ± 0.6 µM
